Data: patent US9290427B2, “Anti-invasive compounds” (Universiteit Gent, priority 2012, dated 2016)

Assays:
MCF-7/LucF5 cells = experiment: MTT test, MCF-7/LucF5; format: cell-based, human
Experimental: An MTT test provides an indication of cell viability, proliferation and activity through determination of the mitochondrial conversion of 3-(4,5-dimethylthiazol-2-yl)-2,5-diphenyltetrazolium bromide (MTT), a yellow salt, into formazan, a salt that precipitates under the form of blue crystals.
In concreto, 5,000 cells are seeded in a cup of a 96 well-plate, treated with the desired amount of the test substance, and incubated for a chosen period of time. Next, 40 μL of a filtered (0.2 μm) 5 mg·mL^−1 solution of MTT in PBS is added to the cup. After 2 h of incubation at 37° C. in the dark, all liquid is removed. The obtained formazan salts are dissolved in 200 μL of DMSO, whereupon optical density is measured at 490 nm.
In order to further validate the use of the MCF-7/LucF5 cells in our in vivo experiments, the effects of 4-fluoro-3′,4′,5′-trimethoxychalcone on this cell line in the MTT and SRB assays were determined as well (Van Hoorde L. et al., 1999).

TR146 cells = experiment: SRB test, TR146; format: cell-based, human; conditions: 1 or 10 μmol·L−1, 24 h
Experimental: (§1) The SRB assay is used to evaluate growth effects on cells, and measures the total protein content. In this test, 5,000 cells are seeded in a cup of a 96-well plate. Upon a 24 h-attachment period, cells are treated with a certain amount of the test molecule (dissolved in DMSO). After a pre-chosen incubation time, cells are fixed with 50 μL of 50% trichloroacetic acid (2° C., 1 h). Afterward, the plate is rinsed five times with tap water, and air dried overnight.
(§2) Next, proteins are stained with 75 μL of a 0.4% solution of SRB in AcOH (30 min). Unbound SRB is subsequently removed by washing with a 1% solution of glacial AcOH, whereupon the plate is air dried. Then, bound SRB is redissolved in 100 μL of a 10 mmol·L^−1 tris(hydroxymethyl)aminomethane (Tris) buffer (pH=10.5), after which optical density is determined at 490 nm with a spectrophotometer.
In order to verify whether the antiproliferative effects of compound 49, witnessed in BLM and MCF-7/6 cells at high concentrations, were cell specific, additional SRB and MTT assays on a further five cell lines (HCT8-E11, TR146, FaDu, 3T3-L1 and CT5.3) were conducted (FIG. 8). The results for MCF-7/6 cells were added to facilitate comparison.
The CT5.3 cell line consists of human myofibroblasts which were isolated from a colon tumor (Van Hoorde et al., 1999). […]

BLM melanoma cells = experiment: SRB test, BLM; format: cell-based
Experimental: as §1, §2
As 4-fluoro-3′,4′,5′-trimethoxychalcone had exerted an anti-invasive activity on BLM melanoma cells in the Matrigel invasion assay, we were intrigued to verify how its effect on the viability of BLM cells would compare to that observed for the MCF-7 cell lines.

[1] = tested on: MCF-7/6 mammary carcinoma cell line; experiment: in vivo survival study after intracardial injection of MCF-7/6 cells; parameters: species or system Swiss nu/nu mice; conditions: for # at risk / # deaths / psurv: 10 nmol i.p. thrice a week; for pcum: cumulative probability of survival
Experimental: In order to evaluate the in vivo potency of 4-fluoro-3′,4′,5′-trimethoxychalcone 49 against the MCF-7/6 mammary carcinoma cell line, a broadly used metastasis experiment involving intracardial injection of the cancer cells was conducted. One week after subcutaneous implantation of an estrogen pellet (1 mg) in the dorsal region of the neck, […] Swiss nu/nu mice were injected in the left cardiac ventricle with 1.10^5 MCF-7/6 cells under xylazine and ketamine anesthesia (Smith W., 1993).
By virtue of injection into the left cardiac ventricle, cancer cells directly enter systemic arterial circulation, which enhances the chance for colonization (Arguello et al., 1988). […] However, since these metastases are difficultly detectable and quantifiable, survival time was chosen as the sole end point in this study.
Upon inoculation, mice were divided randomly into two equal groups. One cohort was intraperitoneally injected with 10 nmol of 49 thrice a week (160 μg·kg^−1 for a 20 g animal), while the other group only received the vehicle (100 μL of serum-free DMEM containing 1:1000 DMSO).
Twenty 6-week old female Swiss nu/nu mice were given a subcutaneous estrogen implant (1 mg) in the dorsal region of the neck. One week later, intracardial injection of 100,000 MCF-7/6 cells in […] of PBS^D^+ was performed. Animals were anesthesized priorly by i.p. injection of xylazine (5 μL, Rompun®) and ketamine (36 μL, Ketalar®). Intracardial injection was performed with a 30 G needle (½″), which was introduced into the thoracic cavity underneath the sternum. Upon protrusion of the wall of the left ventricle, blood is pumped into the syringe. At this moment, careful injection of the cancer cells can be conducted. Next, mice were randomly divided into a vehicle control and a 49-treated cohort.
From the inoculation date on, mice were treated i.p. three times a week with 100 μL of a 100 μmol·L^−1 solution of 49 in serum-free DMEM containing 1:1000 DMSO, or with vehicle alone (see “preparation procedure”). Survival numbers for both cages were recorded on a daily basis.
“Preparation procedure”: for the 49-treated group, 100 mmol·L^−1 solutions of 49 in DMSO were freshly prepared on each injection day, and diluted 1:1000 with serum-free DMEM so as to obtain injectable solutions of 100 μmol·L^−1 of 49. Control mice were given i.p. injections with 100 μL of the vehicle (1:1000 DMSO in serum-free DMEM).

MCF-7/6 cells = experiment: Sulforhodamine B (SRB) test, MCF-7/6; format: cell-based, human
Experimental: as §1, §2
Besides, also an SRB assay was performed. This test is based on the ability of the dye sulforhodamine B (SRB) to bind electrostatically on basic amino acid residues of protein in trichloroacetic acid-fixed cells. Results obtained in the SRB assay are linearly proportional to the amount of cellular protein and thus to the cell number.

[2] = elevated concentrations 10-100 μmol·L−1, summary

COc1cc(C(=O)/C=C/c2ccc(F)cc2)cc(OC)c1OC [Compound 49, (2E)-3-(4-Fluorophenyl)-1-(3,4,5-trimethoxyphenyl)propenone]
mitochondrial activity (MCF-7/LucF5 cells; 0.1 μmol·L−1, 72 h (p=0.0196)): significant reduction
viability (mitochondrial activity) (MCF-7/LucF5 cells; 0.1 μmol·L−1, 144 h): restoration of viability to the control level
mitochondrial activity (MCF-7/LucF5 cells; 100 and 10 μmol·L−1, 72 and 144 h): significant reduction
reduction in mitochondrial activity (MCF-7/LucF5 cells; [2]): ~50%
total protein content versus solvent control (TR146 cells): no significant differences
reduction in total protein content (BLM melanoma cells; 0.1 μmol·L−1, 24 h): no effect was apparent
change in total protein content (BLM melanoma cells; 10 μmol·L−1, 24 h, significant reduction): −20%
reduction in total protein content (BLM melanoma cells; 1 and 10 μmol·L−1, 24 h (p<0.01)): 20%
# at risk ([1]; Day 5): 10
# deaths ([1]; Day 5): 1
psurv ([1]; Day 5): 0.9
pcum ([1]; Day 5): 0.9
# at risk ([1]; Day 40): 9
# deaths ([1]; Day 40): 1
psurv ([1]; Day 40): 0.89
pcum ([1]; Day 40): 0.8
# at risk ([1]; Day 61): 8
psurv ([1]; Day 61): 1
pcum ([1]; Day 61): 0.8
number of cells (MCF-7/6 cells; 1 μmol·L−1, FIG. 6): smaller but still significant reduction
change in total protein content (MCF-7/6 cells; 10 μmol·L−1, 24 h, decreasing trend, not significant): −10%
total protein content relative to solvent control (MCF-7/6 cells; 100 and 10 μmol·L−1, FIG. 6 (72 and 144 h), p<0.01): significant reduction
reduction in total protein content (MCF-7/6 cells; [2]): ~50%
